# Data as given in the supplement of paper PMC10307832.
# Tests used:
# Assay in all cases: relative viability (nuclei count vs DMSO), 5 days (fraction); higher = more cells survive
# ALW-II-49-7 + Lapatinib = compound: Cc1ccc(C(=O)Nc2cccc(C(F)(F)F)c2)cc1Nc1cncc(C(N)=O)c1 [ALW-II-49-7] + CS(=O)(=O)CCNCc1ccc(-c2ccc3ncnc(Nc4ccc(OCc5cccc(F)c5)c(Cl)c4)c3c2)o1 [Lapatinib] (partner 2 µM)
# Method in brief: (§1)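 Dosing by pin tool came one day after lung cancer cell lines were seeded in 1536-well plates, using either one drug or a fixed anchor-drug dose plus five library-drug doses (not always all listed) in √10 steps. After 5 days, nuclei were counted on 4× images. Relative viability is treated-well nuclei count divided by vehicle-well nuclei count, and values are medians of duplicate plates.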
# XMD13-2 + Trametinib = compound: C1CC1C(=O)NC2=NNC3=C2C=CC(=C3)C4=CC(=CC=C4)C(=O)NC5CC5 [XMD13-2] + CC(=O)Nc1cccc(-n2c(=O)n(C3CC3)c(=O)c3c(Nc4ccc(I)cc4F)n(C)c(=O)c(C)c32)c1 [Trametinib] (partner 0.02 µM)
# Method in brief: as §1
# Dasatinib + Crizotinib = compound: Cc1nc(Nc2ncc(C(=O)Nc3c(C)cccc3Cl)s2)cc(N2CCN(CCO)CC2)n1 [Dasatinib] + C[C@@H](Oc1cc(-c2cnn(C3CCNCC3)c2)cnc1N)c1c(Cl)ccc(F)c1Cl [Crizotinib] (partner 1 µM)
# Method in brief: as §1
# Dasatinib + Trametinib = compound: Cc1nc(Nc2ncc(C(=O)Nc3c(C)cccc3Cl)s2)cc(N2CCN(CCO)CC2)n1 [Dasatinib] + CC(=O)Nc1cccc(-n2c(=O)n(C3CC3)c(=O)c3c(Nc4ccc(I)cc4F)n(C)c(=O)c(C)c32)c1 [Trametinib] (partner 0.02 µM)
# Method in brief: as §1
Cell Line,relative viability (ALW-II-49-7 + Lapatinib; first compound 0.08 µM),relative viability (ALW-II-49-7 + Lapatinib; first compound 0.253 µM),relative viability (ALW-II-49-7 + Lapatinib; first compound 0.8 µM),relative viability (ALW-II-49-7 + Lapatinib; first compound 2.53 µM),relative viability (ALW-II-49-7 + Lapatinib; first compound 8 µM),relative viability (XMD13-2 + Trametinib; first compound 0.05 µM),relative viability (XMD13-2 + Trametinib; first compound 0.1581 µM),relative viability (XMD13-2 + Trametinib; first compound 0.5 µM),relative viability (XMD13-2 + Trametinib; first compound 1.581 µM),relative viability (XMD13-2 + Trametinib; first compound 5 µM),relative viability (Dasatinib + Crizotinib; first compound 0.005 µM),relative viability (Dasatinib + Crizotinib; first compound 0.01581 µM),relative viability (Dasatinib + Crizotinib; first compound 0.05 µM),relative viability (Dasatinib + Crizotinib; first compound 0.1581 µM),relative viability (Dasatinib + Crizotinib; first compound 0.5 µM),relative viability (Dasatinib + Trametinib; first compound 0.005 µM),relative viability (Dasatinib + Trametinib; first compound 0.01581 µM),relative viability (Dasatinib + Trametinib; first compound 0.05 µM),relative viability (Dasatinib + Trametinib; first compound 0.1581 µM),relative viability (Dasatinib + Trametinib; first compound 0.5 µM)
201T,1.08,1.1,1.05,1.03,0.903,0.712,0.748,0.736,0.703,0.783,0.972,0.947,0.933,0.729,0.458,0.695,0.64,0.708,0.575,0.44
A549,0.958,1.03,1.01,1.05,0.978,–,–,–,–,–,0.563,0.642,0.415,0.264,0.131,–,–,–,–,–
A-427,0.988,1.13,1.06,1.07,0.969,0.795,0.649,0.755,–,0.581,0.761,0.719,0.701,0.495,0.442,0.76,0.598,0.713,0.433,0.408
ABC-1,1.31,1.07,1.1,0.311,0.999,–,–,–,–,–,0.929,0.856,0.699,0.586,0.367,–,–,–,–,–
BEN,0.721,0.814,0.649,–,0.629,1.11,1,1.21,0.991,1.07,0.706,0.397,0.493,0.378,0.332,0.891,0.614,0.8,0.528,0.511
CAL-12T,0.641,–,–,0.568,0.697,0.465,0.399,0.332,0.317,0.307,0.86,0.627,0.457,0.128,0.0903,0.331,0.324,0.343,0.198,0.138
COR-L23,0.919,0.656,1.16,1.01,1.08,0.611,0.591,0.684,0.552,0.626,0.514,0.5,0.35,0.234,0.267,0.563,0.416,0.48,0.444,0.281
Calu-6,0.896,1.08,1.02,1.59,1.02,–,–,–,–,–,0.701,0.618,0.519,0.341,0.344,–,–,–,–,–
ChaGo-K-1,–,–,–,–,–,0.937,0.89,0.959,0.847,0.835,1.14,1.02,1,0.862,0.734,0.89,0.855,0.95,0.777,0.6
EBC-1,0.197,0.186,0.15,0.231,0.162,–,–,–,–,–,0.203,0.187,0.205,0.183,0.172,–,–,–,–,–
IA-LM,0.83,0.906,0.645,0.152,0.169,–,–,–,–,–,1.05,1.06,1.45,0.674,0.442,–,–,–,–,–
LCLC-103H,–,–,–,–,–,0.66,0.677,0.742,0.738,0.76,0.992,1.05,0.968,0.734,0.488,0.687,0.598,0.574,0.535,0.516
NCI-H441,–,–,–,–,–,0.569,0.452,0.459,0.535,0.538,0.62,0.626,0.617,0.309,0.162,0.409,0.418,0.328,0.208,0.181
NCI-H522,–,–,–,–,–,0.852,0.688,0.82,0.711,0.759,–,–,–,–,–,0.767,0.63,0.668,0.591,0.599
NCI-H1299,0.986,1.06,0.916,0.839,0.763,–,–,–,–,–,0.966,0.975,0.779,0.274,0.256,–,–,–,–,–
NCI-H1395,0.869,1.21,1.05,0.967,0.929,1.05,1.01,1.06,0.966,1.04,–,–,–,–,–,1.12,0.968,1.03,0.605,0.327
NCI-H1563,1.07,0.92,1.16,0.837,0.897,–,–,–,–,–,0.803,0.673,0.679,0.592,0.577,–,–,–,–,–
NCI-H1648,–,–,–,–,–,0.526,–,0.454,0.55,0.374,–,–,–,–,–,0.437,0.352,0.44,0.235,0.175
NCI-H1703,1.17,1.14,0.906,0.448,0.363,–,–,–,–,–,0.652,0.18,0.203,0.154,0.108,–,–,–,–,–
NCI-H1793,0.811,0.708,0.796,0.787,0.988,0.524,0.442,0.407,0.432,0.444,–,–,–,–,–,0.4,0.353,0.317,0.357,0.322
NCI-H2342,–,–,–,–,–,0.766,0.917,0.697,0.912,0.822,–,–,–,–,–,0.662,0.722,0.774,0.515,0.294
SW 900,–,–,–,–,–,0.924,0.943,0.993,0.859,0.881,–,–,–,–,–,0.783,0.474,0.405,0.393,0.188
